Among the data in patent US20170022171A1, “2,5-DISUBSTITUTED CYCLOPENTANECARBOXYLIC ACIDS AND THEIR USE” (Bayer Pharma Aktiengesellschaft, priority 2014, published 2017) are IC50 values, retold here.

Format in all cases: biochemical
One test deals with T1, MMP-8 (Homo sapiens, UniProt P22894).
T1 construct: purchased R&D Systems 908-MP
The test can be described thus: In vitro MMP-8 inhibition test. The text has this: (§1) The MMP-mediated amidolytic cleavage of a suitable peptide substrate leads to an increase in fluorescent light here too. The signal intensity of the fluorescent light is directly proportional to the enzyme activity. The active concentration of a test compound at which half the enzyme is inhibited (50% signal intensity of the fluorescent light) is reported as the IC50 value.
(§2) Recombinant MMP-8 (from R&D Systems, 908-MP) is chemically activated in accordance with the manufacturer's instructions using APMA. 1 μl of the test compound to be analysed (as a solution in DMSO, suitable concentrations, for example, 1 nM to 30 μM) is pipetted into 24 μl of activated enzyme (final concentration, for example, 0.5 nM) in reaction buffer (50 mM Tris/HCl pH 7.5, 10 mM CaCl2, 150 mM NaCl, 0.05% Brij®-35) in a white 384-hole microtiter plate (MTP). The enzymatic reaction is started by adding the intramolecularly quenched Mca-Pro-Leu-Gly-Leu-Dpa(Dnp)-Ala-Arg-NH2 substrate (final concentration, for example, 10 μM; R&D Systems, ES-001), so as to result in a total test volume of 50 μl. The course of the MMP-8 reaction is measured by measuring the fluorescence intensity (excitation 320 nm, emission 410 nm) over a suitable period of time (for example over 120 min at a temperature of 32° C.).

For the next test, the target named is T2, MMP-7 (Homo sapiens, UniProt P09237).
T2 construct: purchased R&D Systems 907-MP
T2 sequence (P09237 95-267): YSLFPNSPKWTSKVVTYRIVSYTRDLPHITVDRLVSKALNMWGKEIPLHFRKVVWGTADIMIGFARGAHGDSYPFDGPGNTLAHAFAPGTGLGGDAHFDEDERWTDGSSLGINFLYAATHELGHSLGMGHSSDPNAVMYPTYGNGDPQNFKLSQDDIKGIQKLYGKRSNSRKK
The test can be described thus: In vitro MMP-7 inhibition test.
From the text: as §1
as §2, with “MMP-7” for “MMP-8”, “907-MP)” for “908-MP)”, “[…]” for “50 μl.”

The target in the next test is T3, MMP-3 (Homo sapiens, UniProt P08254).
T3 construct: purchased R&D Systems 513-MP
T3 sequence (P08254 100-477): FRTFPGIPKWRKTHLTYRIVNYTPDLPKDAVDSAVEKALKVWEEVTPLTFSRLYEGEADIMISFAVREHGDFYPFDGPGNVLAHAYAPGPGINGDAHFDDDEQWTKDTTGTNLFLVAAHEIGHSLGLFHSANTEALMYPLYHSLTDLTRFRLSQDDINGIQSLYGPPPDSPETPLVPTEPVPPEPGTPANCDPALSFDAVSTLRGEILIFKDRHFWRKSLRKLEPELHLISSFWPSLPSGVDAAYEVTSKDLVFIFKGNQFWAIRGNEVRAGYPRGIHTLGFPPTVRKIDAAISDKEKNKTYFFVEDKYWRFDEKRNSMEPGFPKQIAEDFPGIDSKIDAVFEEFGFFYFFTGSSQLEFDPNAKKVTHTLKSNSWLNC
In words: In vitro MMP-3 inhibition test.
From the text: as §1
as §2, with “MMP-3” for “MMP-8”, “513-MP)” for “908-MP)”, “2” for “0.5”, “Mca-Arg-Pro-Lys-Pro-Val-Glu-Nval-Trp-Arg-Lys(Dnp)-NH2” for “Mca-Pro-Leu-Gly-Leu-Dpa(Dnp)-Ala-Arg-NH2”, “ES-002),” for “ES-001),”, “50” for “50 μl.”

Another test addresses T4, MMP-1 (Homo sapiens, UniProt P03956).
T4 construct: purchased R&D Systems 901-MP
T4 sequence (P03956 100-469): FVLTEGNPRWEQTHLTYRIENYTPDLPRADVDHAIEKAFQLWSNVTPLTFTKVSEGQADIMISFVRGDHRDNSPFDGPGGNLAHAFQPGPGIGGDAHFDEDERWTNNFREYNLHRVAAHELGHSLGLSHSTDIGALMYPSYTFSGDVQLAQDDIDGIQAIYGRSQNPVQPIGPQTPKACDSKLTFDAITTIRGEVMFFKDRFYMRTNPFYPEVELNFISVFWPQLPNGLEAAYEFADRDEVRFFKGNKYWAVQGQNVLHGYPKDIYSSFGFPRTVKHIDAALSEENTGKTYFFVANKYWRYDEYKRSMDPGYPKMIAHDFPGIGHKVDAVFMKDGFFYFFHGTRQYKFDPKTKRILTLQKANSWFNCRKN
In words: In vitro MMP-1 inhibition test.
From the text: as §1
as §2, with “MMP-1” for “MMP-8”, “901-MP)” for “908-MP)”, “2” for “0.5”

T1 sequence (P22894 101-467): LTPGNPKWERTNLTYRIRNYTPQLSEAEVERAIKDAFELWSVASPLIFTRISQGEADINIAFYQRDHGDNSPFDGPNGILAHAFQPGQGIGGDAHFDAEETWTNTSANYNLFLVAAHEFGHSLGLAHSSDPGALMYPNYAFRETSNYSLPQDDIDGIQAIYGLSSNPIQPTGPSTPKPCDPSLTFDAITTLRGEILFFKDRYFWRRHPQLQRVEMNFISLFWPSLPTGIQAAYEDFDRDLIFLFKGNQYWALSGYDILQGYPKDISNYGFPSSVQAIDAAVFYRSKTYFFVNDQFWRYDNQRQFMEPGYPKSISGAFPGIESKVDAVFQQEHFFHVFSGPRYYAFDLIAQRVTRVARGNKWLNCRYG

The term IC50 denotes the point on the concentration scale where inhibition reaches its midpoint. `O=C(O)[C@H]1[C@H](Cn2nnc3ccccc3c2=O)CC[C@@H]1C(=O)c1ccc(OCc2cccc(Cl)c2)cc1` (racemic) [Example 2, (+/−)-(1RS,2RS,5SR)-2-{4-[(3-Chlorobenzyl)oxy]benzoyl}-5-[(4-oxo-1,2,3-benzotriazin-3(4H)-yl)methyl]cyclopentanecarboxylic acid]: the IC50 on MMP-8 is 440 nM; against MMP-7, 5300 nM; on MMP-3, 2100 nM; on MMP-1 it was > 40000 nM.

Take `O=C(O)[C@@H]1[C@@H](Cn2nnc3ccc(C(F)(F)F)cc3c2=O)CC[C@H]1C(=O)c1ccc(OCC2CCCC2)cc1` (single isomer, unassigned) [Example 44, (+)-(1RS,2RS,5SR)-2-[4-(Cyclopentylmethoxy)benzoyl]-5-{[4-oxo-6-(trifluoromethyl)-1,2,3-benzotriazin-3(4H)-yl]methyl}cyclopentanecarboxylic acid]: the IC50 was 1.1 nM against MMP-8, 140 nM against MMP-7, 140 nM against MMP-3 and 3600 nM against MMP-1.

With `O=C(O)[C@H]1[C@H](Cn2nnc3ccccc3c2=O)CC[C@@H]1C(=O)c1ccc(OCc2ccc(Cl)c(Cl)c2)cc1` (racemic) [Example 3, (+/−)-(1RS,2RS,5SR)-2-{4-[(3,4-Dichlorobenzyl)oxy]benzoyl}-5-[(4-oxo-1,2,3-benzotriazin-3(4H)-yl)methyl]cyclopentanecarboxylic acid], the IC50 was determined as 260 nM on MMP-8, 4900 nM on MMP-7, 1500 nM at MMP-3 and 16000 nM against MMP-1.

Turning to `O=C(O)[C@H]1[C@H](Cn2nnc3ccc(C(F)(F)F)cc3c2=O)CC[C@@H]1C(=O)c1ccc(OCc2ccc(F)cc2)cc1` (racemic) [Example 12, (+/−)-(1RS,2RS,5SR)-2-{4-[(4-Fluorobenzyl)oxy]benzoyl}-5-{[4-oxo-6-(trifluoromethyl)-1,2,3-benzotriazin-3(4H)-yl]methyl}cyclopentanecarboxylic acid], the IC50 against MMP-8 stood at 0.67 nM; against MMP-7 it was 160 nM; against MMP-3 it was 28 nM; on MMP-1, 2500 nM.

Take `O=C(O)[C@H]1[C@H](Cn2nnc3ccc(C(F)(F)F)cc3c2=O)CC[C@@H]1C(=O)c1ccc(OCC2CCCCC2)cc1` (racemic) [Example 40, (+/−)-(1RS,2RS,5SR)-2-[4-(Cyclohexylmethoxy)benzoyl]-5-{[4-oxo-6-(trifluoromethyl)-1,2,3-benzotriazin-3(4H)-yl]methyl}cyclopentanecarboxylic acid]: the IC50 at MMP-8 worked out at 6.3 nM; against MMP-7, 260 nM; at MMP-3 it was 180 nM; on MMP-1, 3800 nM.

Turning to `CCCCCCOc1ccc(C(=O)[C@@H]2CC[C@H](Cn3nnc4ccc(C)cc4c3=O)[C@H]2C(=O)O)cc1` (single isomer, unassigned) [Example 121, (+)-(1RS,2RS,5SR)-2-[4-(Hexyloxy)benzoyl]-5-[(6-methyl-4-oxo-1,2,3-benzotriazin-3(4H)-yl)methyl]cyclopentanecarboxylic acid], the IC50 against MMP-8 was 18 nM; at MMP-7, 350 nM; against MMP-3 it was 410 nM; against MMP-1, 13000 nM.

Regarding `O=C(O)[C@H]1[C@H](Cn2nnc3ccccc3c2=O)CC[C@@H]1C(=O)c1ccc(OCc2ccc(F)cc2)cc1` (racemic) [Example 1, (+/−)-(1RS,2RS,5SR)-2-{4-[(4-Fluorobenzyl)oxy]benzoyl}-5-[(4-oxo-1,2,3-benzotriazin-3(4H)-yl)methyl]cyclopentanecarboxylic acid], the IC50 is 2.5 nM at MMP-8, 1100 nM on MMP-7, 170 nM at MMP-3 and 5200 nM against MMP-1.

As for `O=C(O)[C@@H]1[C@@H](Cn2nnc3ccc(C(F)(F)F)cc3c2=O)CC[C@H]1C(=O)c1ccc(OCC2CCCCC2)cc1` (single isomer, unassigned) [Example 41, (+)-(1RS,2RS,5SR)-2-[4-(Cyclohexylmethoxy)benzoyl]-5-{[4-oxo-6-(trifluoromethyl)-1,2,3-benzotriazin-3(4H)-yl]methyl}cyclopentanecarboxylic acid], the IC50 is 1.6 nM against MMP-8, 68 nM at MMP-7, 41 nM at MMP-3 and 3100 nM at MMP-1.

As for `CCCCCOc1ccc(C(=O)[C@H]2CC[C@@H](Cn3nnc4ccc(C)cc4c3=O)[C@@H]2C(=O)O)cc1` (racemic) [Example 123, (+/−)-(1RS,2SR,5RS)-2-[(6-Methyl-4-oxo-1,2,3-benzotriazin-3(4H)-yl)methyl]-5-[4-(pentyloxy)benzoyl]cyclopentanecarboxylic acid], the IC50 came to 11 nM on MMP-8, 390 nM on MMP-7, 540 nM on MMP-3 and 24000 nM at MMP-1.

With `O=C(O)[C@@H]1[C@@H](Cn2nnc3ccc(C(F)(F)F)cc3c2=O)CC[C@H]1C(=O)c1ccc(OCCC2CCCC2)cc1` (single isomer, unassigned) [Example 55, (+)-(1RS,2RS,5SR)-2-[4-(2-Cyclopentylethoxy)benzoyl]-5-{[4-oxo-6-(trifluoromethyl)-1,2,3-benzotriazin-3(4H)-yl]methyl}cyclopentanecarboxylic acid], the IC50 on MMP-8 worked out at 30 nM; against MMP-7, 260 nM; against MMP-3, 440 nM; against MMP-1, 15000 nM.

As to `O=C(O)[C@@H]1[C@@H](Cn2nnc3ccc(C(F)(F)F)cc3c2=O)CC[C@H]1C(=O)c1ccc(OCc2cccc(Cl)c2)cc1` (single isomer, unassigned) [Example 23, (+)-(1RS,2RS,5SR)-2-{4-[(3-Chlorobenzyl)oxy]benzoyl}-5-{[4-oxo-6-(trifluoromethyl)-1,2,3-benzotriazin-3(4H)-yl]methyl}cyclopentanecarboxylic acid], the IC50 came out at 56 nM at MMP-8, 500 nM on MMP-7, 540 nM against MMP-3 and 24000 nM against MMP-1.
